These compounds were tested against C-C chemokine receptor type 2 (Homo sapiens, UniProt P41597) (assay: Antagonist activity at human CCR2b receptor). Settings: read-out: IC50.
Assay type: functional

Sequence of C-C chemokine receptor type 2 (P41597 whole entry): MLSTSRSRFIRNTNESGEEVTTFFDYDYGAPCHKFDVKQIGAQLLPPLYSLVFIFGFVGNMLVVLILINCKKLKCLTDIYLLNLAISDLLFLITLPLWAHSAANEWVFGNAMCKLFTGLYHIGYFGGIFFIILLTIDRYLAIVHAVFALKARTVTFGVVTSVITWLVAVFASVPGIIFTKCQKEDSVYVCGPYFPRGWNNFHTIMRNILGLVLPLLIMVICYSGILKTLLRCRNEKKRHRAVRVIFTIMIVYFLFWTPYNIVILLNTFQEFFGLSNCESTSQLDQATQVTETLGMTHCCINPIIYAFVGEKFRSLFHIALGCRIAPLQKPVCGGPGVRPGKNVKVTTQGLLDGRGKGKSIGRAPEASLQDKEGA

| SMILES | IC50 [nM] |
| --- | --- |
| O=C(NCc1cc(C(F)(F)F)cc(C(F)(F)F)c1)C(CCN1CCC2(C=Cc3ccccc32)CC1)C1CC1 (configuration not stated) | 98 |
| CC(CCN1CCC2(C=Cc3ccccc32)CC1)C(=O)NCc1cc(C(F)(F)F)cc(C(F)(F)F)c1 (configuration not stated) | 231 |
| C=CCC(CCN1CCC2(C=Cc3ccccc32)CC1)C(=O)NCc1cc(C(F)(F)F)cc(C(F)(F)F)c1 (configuration not stated) | 193 |
| C[C@H]1CN(CCC(C(=O)NCc2cc(C(F)(F)F)cc(C(F)(F)F)c2)C2CC2)CC[C@@]12C=Cc1ccccc12 (some centres not stated) | 14 |
| C[C@H]1CN(CCC(C(=O)NCc2cc(C(F)(F)F)cc(C(F)(F)F)c2)C2CCC2)CC[C@@]12C=Cc1ccccc12 (some centres not stated) | 28 |
| O=C(NCc1cc(C(F)(F)F)cc(C(F)(F)F)c1)C(CCN1CCC(c2ccc(F)cc2)CC1)C1CC1 (configuration not stated) | 280 |
| O=C(NCc1cc(C(F)(F)F)cc(C(F)(F)F)c1)C(CCN1CCC(c2ccccc2)CC1)C1CC1 (configuration not stated) | 285 |
| CCCC(CCN1CCC(c2ccccc2)CC1)C(=O)NCc1cc(C(F)(F)F)cc(C(F)(F)F)c1 (configuration not stated) | 126 |
| C=CCC(CCN1CCC(c2ccccc2)CC1)C(=O)NCc1cc(C(F)(F)F)cc(C(F)(F)F)c1 (configuration not stated) | 642 |
| CC(C)C(CCN1CCC2(C=Cc3ccccc32)CC1)C(=O)NCc1cc(C(F)(F)F)cc(C(F)(F)F)c1 (configuration not stated) | 204 |
| C[C@H]1CN(CCC(CC2CC2)C(=O)NCc2cc(C(F)(F)F)cc(C(F)(F)F)c2)CC[C@@]12C=Cc1ccccc12 (some centres not stated) | 25 |
| Nc1nc([C@@H](CCN2CCC(c3ccccc3)CC2)C(=O)NCc2cc(C(F)(F)F)cc(C(F)(F)F)c2)cs1 | 229 |

Other lines, results leading:

| IC50 [nM] | SMILES |
| --- | --- |
| 67 | CS[C@]1(C(=O)NCc2cc(F)cc(C(F)(F)F)c2)CC[C@@H](N2CC[C@]3(C=Cc4ccccc43)[C@@H](C)C2)C1 |
| 28 | CS[C@]1(C(=O)NCc2cc(C(F)(F)F)cc(C(F)(F)F)c2)CC[C@@H](N2CC[C@]3(C=Cc4ccccc43)[C@@H](C)C2)C1 |
| 20 | C[C@H]1CN([C@@H]2CC[C@H](C(=O)NCc3cc(C(F)(F)F)cc(C(F)(F)F)c3)C2)CC[C@]12C=Cc1ccccc12 |
| 19 | C[C@H]1CN([C@@H]2CC[C@](CC3CCC3)(C(=O)NCc3cc(C(F)(F)F)cc(C(F)(F)F)c3)C2)CC[C@]12C=Cc1ccccc12 |
| 16 | CCC[C@]1(C(=O)NCc2cc(C(F)(F)F)cc(C(F)(F)F)c2)CC[C@@H](N2CC[C@]3(C=Cc4ccccc43)[C@@H](C)C2)C1 |
| 13 | CSC[C@]1(C(=O)NCc2cc(C(F)(F)F)cc(C(F)(F)F)c2)CC[C@@H](N2CC[C@]3(C=Cc4ccccc43)[C@@H](C)C2)C1 |
| 9 | C[C@H]1CN([C@@H]2CC[C@](C)(C(=O)NCc3cc(C(F)(F)F)cc(C(F)(F)F)c3)C2)CC[C@]12C=Cc1ccccc12 |
| 8 | CC(C)C[C@]1(C(=O)NCc2cc(C(F)(F)F)cc(C(F)(F)F)c2)CC[C@@H](N2CC[C@]3(C=Cc4ccccc43)[C@@H](C)C2)C1 |
| 7.6 | CC(C)[C@]1(C(=O)NCc2cc(C(F)(F)F)cc(C(F)(F)F)c2)CC[C@@H](N2CC[C@]3(C=Cc4ccccc43)[C@@H](C)C2)C1 |
| 4 | C[C@H]1CN([C@@H]2CC[C@](C)(C(=O)NCc3cc(F)cc(C(F)(F)F)c3)C2)CC[C@]12C=Cc1ccccc12 |
| 3.9 | CC(C)C[C@]1(C(=O)NCc2cc(F)cc(C(F)(F)F)c2)CC[C@@H](N2CC[C@]3(C=Cc4ccccc43)[C@@H](C)C2)C1 |
| 3.5 | CSC[C@]1(C(=O)NCc2cc(F)cc(C(F)(F)F)c2)CC[C@@H](N2CC[C@]3(C=Cc4ccccc43)[C@@H](C)C2)C1 |
| 3.1 | CC(C)[C@]1(C(=O)NCc2cc(F)cc(C(F)(F)F)c2)CC[C@@H](N2CC[C@]3(C=Cc4ccccc43)[C@@H](C)C2)C1 |
| 1.9 | C[C@H]1CN([C@@H]2CC[C@@](C(=O)NCc3cc(F)cc(C(F)(F)F)c3)(C3CC3)C2)CC[C@]12C=Cc1ccccc12 |

Same assay, conditions: read-out: Log IC50 (converted)

| IC50 [nM] | SMILES |
| --- | --- |
| 832 | O=C(NCc1cc(C(F)(F)F)cc(C(F)(F)F)c1)[C@@H](NCCN1CCC(c2ccccc2)CC1)c1ccccc1 |
